Consider eleven compounds from patent US8835462B2, “Macrocyclic picolinamides as fungicides” (Dow AgroSciences LLC, priority 2012, dated 2014).

Holding throughout (format): in vivo
For assay [1], the system named is Mycosphaerella graminicola; Anamorph: Septoria tritici. Kind of assay: Leaf blotch of wheat (SEPTTR) fungicidal activity on wheat seedlings. As to conditions: Zymoseptoria tritici. The method, boiled down: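 Percent control derives from disease severity on treated versus untreated first leaves, rated 0–100% when symptoms were fully expressed on untreated plants. Yuma seedlings were inoculated with S. tritici spores either before or after spraying to run-off. The spray was acetone solution diluted 1:9 in water with 110 ppm Triton X-100. Infection took place in 100% RH dew chambers, then a 20 °C greenhouse.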

The next assay deals with Erysiphe cichoracearum. The assay is described as follows: Powdery mildew of cucumber (ERYSCI) fungicidal activity. Conditions: Golovinomyces cichoracearum, 24 h, 1 Day Protectant, read-out: Disease Control ERYSCI 1DP. The procedure:
Technical grades of materials were dissolved in acetone, which were then mixed with nine volumes of water containing 110 ppm Triton X-100. The fungicide solutions were applied onto wheat seedlings using an automated booth sprayer to run-off. All sprayed plants were allowed to air dry prior to further handling. Wheat plants (variety Yuma) were grown from seed in a greenhouse in 50% mineral soil/50% soil-less Metro mix until the first leaf was fully emerged, with 7-10 seedlings per pot. These plants were inoculated with an aqueous spore suspension of Septoria tritici either prior to or after fungicide treatments. After inoculation the plants were kept in 100% relative humidity (one day in a dark dew chamber followed by two to three days in a lighted dew chamber at 20° C.) to permit spores to germinate and infect the leaf. The plants were then transferred to a greenhouse set at 20° C. for disease to develop. When disease symptoms were fully expressed on the 1st leaves of untreated plants, infection levels were assessed on a scale of 0 to 100 percent disease severity. Percent disease control was calculated using the ratio of disease severity on treated plants relative to untreated plants. Evaluation of Fungicidal Activity: Powdery Mildew of Cucumber (Erysiphe cichoracearum; Bayer Code […]) Cucumber seedlings (variety Bush Pickle) were grown in soil-less Metro mix, with one plant per pot, and used in the test when 12 to 14 days old. Plants were inoculated with a spore suspension 24 hr following fungicide treatments. After inoculation the plants remained in the greenhouse set at 20° C. until disease was fully expressed. Fungicide formulation, application and disease assessment on the sprayed leaves followed the procedures as described in the Example A.

Assay [2] has as its system Blumeria graminis f. sp. tritici. Kind of assay: Wheat powdery mildew (ERYSGT) fungicidal activity. As to conditions: 24 h, 1 Day Protectant, read-out: Disease Control ERYSGT 1DP. The procedure:
Technical grades of materials were dissolved in acetone, which were then mixed with nine volumes of water containing 110 ppm Triton X-100. The fungicide solutions were applied onto wheat seedlings using an automated booth sprayer to run-off. All sprayed plants were allowed to air dry prior to further handling. Wheat plants (variety Yuma) were grown from seed in a greenhouse in 50% mineral soil/50% soil-less Metro mix until the first leaf was fully emerged, with 7-10 seedlings per pot. These plants were inoculated with an aqueous spore suspension of Septoria tritici either prior to or after fungicide treatments. After inoculation the plants were kept in 100% relative humidity (one day in a dark dew chamber followed by two to three days in a lighted dew chamber at 20° C.) to permit spores to germinate and infect the leaf. The plants were then transferred to a greenhouse set at 20° C. for disease to develop. When disease symptoms were fully expressed on the 1st leaves of untreated plants, infection levels were assessed on a scale of 0 to 100 percent disease severity. Percent disease control was calculated using the ratio of disease severity on treated plants relative to untreated plants. Evaluation of Fungicidal Activity: Wheat Powdery Mildew (Blumeria Graminis f. sp. Tritici; Synonym: Erysiphe graminis f. sp. Tritici; Bayer Code […]) Wheat plants (variety Yuma) were grown from seed in a greenhouse in 50% mineral soil/50% soil-less Metro mix until the first leaf was fully emerged, with 7-10 seedlings per pot. These plants were inoculated by dusting with infected stock plants 24 hr after fungicide treatments. After inoculation the plants were kept in a greenhouse set at 20° C. for disease to develop. Fungicide formulation, application and disease assessment on the sprayed leaves followed the procedures as described in the Example A.

The test system of the next assay is Alternaria solani. The assay is described as follows: Tomato early blight (ALTESO) fungicidal activity. As to conditions: 24 h, 1 Day Protectant, read-out: Disease Control ALTESO 1DP. The procedure:
Technical grades of materials were dissolved in acetone, which were then mixed with nine volumes of water containing 110 ppm Triton X-100. The fungicide solutions were applied onto wheat seedlings using an automated booth sprayer to run-off. All sprayed plants were allowed to air dry prior to further handling. Wheat plants (variety Yuma) were grown from seed in a greenhouse in 50% mineral soil/50% soil-less Metro mix until the first leaf was fully emerged, with 7-10 seedlings per pot. These plants were inoculated with an aqueous spore suspension of Septoria tritici either prior to or after fungicide treatments. After inoculation the plants were kept in 100% relative humidity (one day in a dark dew chamber followed by two to three days in a lighted dew chamber at 20° C.) to permit spores to germinate and infect the leaf. The plants were then transferred to a greenhouse set at 20° C. for disease to develop. When disease symptoms were fully expressed on the 1st leaves of untreated plants, infection levels were assessed on a scale of 0 to 100 percent disease severity. Percent disease control was calculated using the ratio of disease severity on treated plants relative to untreated plants. Evaluation of Fungicidal Activity: Tomato Early Blight (Alternaria Solani; Bayer Code […]) Tomato plants (variety Outdoor girl) were propagated in soil-less Metro mix, with each pot having one plant, and used when 12 to 14 days old. Test plants were inoculated with an aqueous spore suspension of Alternaria solani 24 hr after fungicide treatments. After inoculation the plants were kept in 100% relative humidity (one day in a dark dew chamber followed by two to three days in a lighted dew chamber at 20° C.) to permit spores to germinate and infect the leaf. The plants were then transferred to a growth room at 22° C. for disease to develop. Fungicide formulation, application and disease assessment on the sprayed leaves followed the procedures as described in the Example A.

The mark [3] stands for this setting: 24 h, 1 Day Protectant, read-out: Disease Control SEPTTR 1 DP.
Setting [4] is: 72 h, 3 Day Curative, read-out: Disease Control SEPTTR 3 DC.

Like-named read-outs stand apart in the source and are kept apart here.

As for `COc1ccnc(C(=O)N[C@H]2COC[C@H](Cc3ccccc3)[C@@H](OCC(C)C)[C@H](C)OC2=O)c1O` [Compound 2, N-((3S,7S,8R,9S)-7-benzyl-8-isobutoxy-9-methyl-2-oxo-1,5-dioxonan-3-yl)-3-hydroxy-4-methoxypicolinamide], the pest or weed control at 100 ppm in assay [1] (setting [3]) and in assay [1] (setting [4]) was 80 to 100% in each case.
As to `COc1ccnc(C(=O)N[C@H]2COC[C@H](Cc3ccccc3)[C@@H](OCC(C)C)[C@H](C)OC2=O)c1OCOC(=O)C(C)C` [Compound 3], the pest or weed control at 100 ppm (in assay [1] (setting [3]); in assay [1] (setting [4]); with Erysiphe cichoracearum; in assay [2]; in the assay on Alternaria solani) was 80 to 100% throughout.
Regarding `COc1ccnc(C(=O)N[C@H]2COC[C@H](Cc3ccccc3)[C@@H](OCC(C)C)[C@H](C)OC2=O)c1OCOC(=O)C(C)(C)C` [Compound 7], the pest or weed control at 100 ppm fell in the range of 80 to 100% in assay [1] (setting [3]); 80 to 100% in assay [1] (setting [4]); 80 to 100% with Erysiphe cichoracearum; 0 to 80% in assay [2]; 80 to 100% in the assay on Alternaria solani.
Turning to `COc1ccnc(C(=O)N[C@H]2COC[C@H](Cc3ccccc3)[C@@H](OCCC(=O)N(C)C)[C@H](C)OC2=O)c1OCOC(C)=O` [Compound 15], the pest or weed control at 100 ppm (in assay [1] (setting [3]); in assay [1] (setting [4]); in assay [2]; with Alternaria solani) was 0 to 80% in each case.
Consider `COc1ccnc(C(=O)N[C@H]2COC[C@H](Cc3ccccc3)[C@@H](OC(=O)c3ccccc3)[C@H](C)OC2=O)c1OCOC(C)=O` [Compound 37], for which the pest or weed control at 100 ppm lay within 80 to 100% in assay [1] (setting [3]), 80 to 100% in assay [1] (setting [4]), 0 to 80% in assay [2] and 80 to 100% in the assay with Alternaria solani.
`COc1ccnc(C(=O)N[C@H]2COC[C@H](Cc3ccccc3)[C@@H](Oc3ccccc3)[C@H](C)OC2=O)c1OCOC(C)=O` [Compound 40]: the pest or weed control at 100 ppm in assay [1] (setting [3]) lay in the range of 80 to 100%; in assay [1] (setting [4]) it was 80 to 100%; in assay [2] it was 0 to 80%; in the assay with Alternaria solani, 80 to 100%.
Turning to `COc1ccnc(C(=O)N[C@H]2COC[C@H](Cc3ccccc3)[C@@H](OCC(F)F)[C@H](C)OC2=O)c1OCOC(C)=O` [Compound 44], the pest or weed control at 100 ppm in assay [1] (setting [3]) is 80 to 100%; in assay [1] (setting [4]), 80 to 100%; in the assay on Erysiphe cichoracearum it was 0 to 80%; with Alternaria solani, 0 to 80%.
For `COc1ccnc(C(=O)N[C@H]2COC[C@H](Cc3ccccc3)[C@@H](OCCC(C)OC)[C@H](C)OC2=O)c1OCOC(C)=O` (some centres unmarked) [Compound 46], the pest or weed control at 100 ppm was in the range of 80 to 100% in assay [1] (setting [3]), 80 to 100% in assay [1] (setting [4]), 80 to 100% in the assay with Erysiphe cichoracearum and 0 to 80% in the assay on Alternaria solani.
Regarding `COc1ccnc(C(=O)N[C@H]2COC[C@H](Cc3ccccc3)[C@@H](OC3CCCC3)[C@H](C)OC2=O)c1OCOC(C)=O` [Compound 106], the pest or weed control at 100 ppm lay in the range of 80 to 100% in assay [1] (setting [3]), 80 to 100% in assay [1] (setting [4]), 80 to 100% with Erysiphe cichoracearum and 0 to 80% with Alternaria solani.
In the case of `COc1ccnc(C(=O)N[C@H]2COC[C@H](Cc3ccccc3)[C@@H](OC3CCCC3)[C@H](C)OC2=O)c1OC(C)=O` [Compound 107], the pest or weed control at 100 ppm lay in the range of 80 to 100% in assay [1] (setting [3]), 80 to 100% in assay [1] (setting [4]), 0 to 80% with Erysiphe cichoracearum and 0 to 80% in the assay with Alternaria solani.
Regarding `COc1ccnc(C(=O)N[C@H]2COC[C@H](Cc3ccccc3)[C@@H](OC3CCCC3)[C@H](C)OC2=O)c1OCOC(=O)C(C)C` [Compound 108], the pest or weed control at 100 ppm in assay [1] (setting [3]) was 80 to 100%; in assay [1] (setting [4]), 0 to 80%; in the assay with Erysiphe cichoracearum it was 0 to 80%; with Alternaria solani, 80 to 100%.
